Source: article PMC8746705, “Comparison of Experimental Strategies to Study L-Type Amino Acid Transporter 1 (LAT1) Utilization by Ligands” (Molecules, 2021)

Assays:
Transport Type 2 = experiment: Concentration-dependent cellular uptake into BV2 cells, Eadie–Hofstee analysis, Transport Type 2; type: cell-based, mouse; details: 1–200 µM, 30 min, mean ± SD, n = 3
Description: (§1) For the concentration-dependent cellular uptake experiments, the BV2 cells on 24-well plates were incubated with studied compounds (1–200 μM) in pre-warmed HBSS buffer (250 μL) at 37 °C for 30 min. The experiment was then carried out as described for the time-dependent uptake above and the concentration of studied compounds in the cell lysate was analyzed by the LC-MS/MS methods described above and the results were normalized to the total protein concentration. The distinct transport mechanisms were separated from the Michaelis-Menten kinetics by using Eadie–Hofstee plot.
(§2) The studied compounds (1–15) were analyzed by using Agilent 1200 Series Rapid Resolution LC System together with an Agilent 6410 Triple Quadrupole Mass Spectrometer equipped with an electrospray ionization source (Agilent Technologies, Santa Clara, CA, USA). The chromatographic separations of analytes were achieved by using a reversed-phase Zobrax SB-C18 column (50 mm × 2.1 mm, 1.8 μm; Agilent Technologies, Santa Clara, CA, USA) by eluting the samples with 0.1% formic acid in water (A) and 0.1% formic in ACN (B). Labetalol and diclofenac were used as internal standards (ISTD) for the prodrugs and parent drugs, respectively. The transitions used for the quantification at the positive ion mode and chromatographic conditions of each compound and their parent drugs are listed in Table S1. The methods of compounds 1–11 have been reported earlier, while the methods of compounds 12–15 are reported herein for the first time.

LAT1 [1] = target: T1, LAT1 (Mus musculus, UniProt Q9Z127); experiment: Inhibition type of [14C]-L-Leu uptake (Hanes-Woolf plots) in BV2 cells; type: cell-based; details: for Vmax of [14C]-L-Leu uptake: 0.010–0.20 µM [14C]-L-Leu in the presence of the compound at its IC50, mean ± SD, n = 3–4; for Vmax of [14C]-L-Leu uptake / Inhibition Type: BV2; for Inhibition Type: of [14C]-L-Leu uptake, concluded from Km and Vmax
T1 sequence (Q9Z127 whole entry): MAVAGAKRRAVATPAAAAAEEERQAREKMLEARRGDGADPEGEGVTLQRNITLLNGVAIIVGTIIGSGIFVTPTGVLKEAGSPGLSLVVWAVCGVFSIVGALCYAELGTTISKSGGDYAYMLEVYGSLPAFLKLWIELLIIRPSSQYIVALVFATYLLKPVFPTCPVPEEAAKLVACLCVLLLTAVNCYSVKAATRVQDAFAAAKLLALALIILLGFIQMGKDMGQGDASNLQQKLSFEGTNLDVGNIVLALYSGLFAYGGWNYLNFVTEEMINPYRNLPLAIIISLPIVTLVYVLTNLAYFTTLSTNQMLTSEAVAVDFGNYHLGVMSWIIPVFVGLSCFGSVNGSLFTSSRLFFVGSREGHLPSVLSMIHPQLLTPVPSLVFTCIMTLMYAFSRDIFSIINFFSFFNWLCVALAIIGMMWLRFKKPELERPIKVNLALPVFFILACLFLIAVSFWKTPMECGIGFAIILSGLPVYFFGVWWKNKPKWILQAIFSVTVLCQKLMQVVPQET
T1 sequence (P10852 whole entry partner): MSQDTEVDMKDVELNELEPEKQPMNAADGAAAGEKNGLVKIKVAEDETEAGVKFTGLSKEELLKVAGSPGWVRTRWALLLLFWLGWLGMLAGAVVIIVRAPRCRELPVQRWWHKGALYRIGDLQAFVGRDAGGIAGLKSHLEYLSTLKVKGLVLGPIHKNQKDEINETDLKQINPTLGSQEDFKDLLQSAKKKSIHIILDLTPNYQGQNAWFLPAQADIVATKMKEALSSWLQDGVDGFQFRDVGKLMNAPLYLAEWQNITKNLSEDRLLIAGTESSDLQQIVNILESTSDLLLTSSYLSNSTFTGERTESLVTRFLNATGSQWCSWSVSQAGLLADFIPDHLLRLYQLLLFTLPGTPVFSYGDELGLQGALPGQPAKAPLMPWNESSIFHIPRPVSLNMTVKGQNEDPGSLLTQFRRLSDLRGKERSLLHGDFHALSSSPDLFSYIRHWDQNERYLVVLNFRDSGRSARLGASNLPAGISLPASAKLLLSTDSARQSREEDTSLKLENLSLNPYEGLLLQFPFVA
Description: (§3) After removal of the culture medium, the BV2 cells were carefully washed with pre-warmed HBSS (Hank’s balanced salt solution) containing 125.0 mM choline chloride, 4.8 mM KCl, 1.2 mM MgSO4, 1.2 mM KH2PO4, 1.3 mM CaCl2, 5.6 mM glucose, and 25.0 mM HEPES (pH 7.4 adjusted with 1 M NaOH). Pre-incubation was done with 500 μL of pre-warmed HBSS at 37 °C for 10 min before adding substrates (250 μL in HBSS) for the uptake experiments.
To evaluate the inhibition type of studied compounds, the BV2 cells were incubated with 0.010–0.20 μM [^14C]-L-leucine together with the studied compound. The concentration of compounds was selected according to the compound-specific IC50 values. The experiment was then carried out as described for the [^14C]-L-leucine uptake above and the radioactivity was measured by liquid scintillation counting. Hanes-Woolf plots were created by setting the ratio of initial substrate concentration to the reaction velocity ([S]/v) against [^14C]-L-leucine concentration (µM). The linear regression was used to calculate Km value (negative value of x-intercept) and Vmax value (1/slope) for [^14C]-L-leucine.

[2] = Time-dependent cellular uptake of compounds into BV2 cells (LC-MS/MS); type: cell-based, mouse; details: mouse, BV2 microglia cells, 100 µM compound, 1–60 min, mean ± SD, n = 3, read-out: T½ of cellular uptake
Description: (§4) For the time-dependent cellular uptake experiments, the BV2 cells on 24-well plates were incubated with studied compounds (100 μM) in a pre-warmed HBSS buffer (250 μL) at 37 °C for 1–60 min. Subsequently, the cells were washed three times with an ice-cold HBSS and lysed with 250 μL of NaOH (0.1 M) for 60 min. The lysates were diluted with acetonitrile (ACN) including the selected internal standard (diclofenac to all compounds) with a ratio of 1:3 and centrifuged at 10,000× g for 10 min. The samples were analyzed by the liquid chromatography-tandem mass spectrometric (LC-MS/MS) methods as described below. The concentrations of each compound in cell lysates were calculated from the standard curve that was prepared by spiking known amounts of compounds to ACN including the selected internal standard and then normalized with protein concentration. The protein concentrations on each plate were determined as a mean of three samples by Bio-Rad Protein Assay, based on the Bradford dye-binding method, using bovine serum albumin (BSA) as a standard protein and measuring the absorbance (595 nm) by multiplate reader (EnVision, Perkin Elmer, Inc., Waltham, MA, USA).
as §2

[3] = tested on: immortalized mouse microglia (BV2); experiment: as above; type: cell-based
Description: as §4, §2

LAT1 [4] = target: T1, LAT1; experiment: Cellular uptake of L-leucine after pre-incubation of BV2 cells with the compounds; type: cell-based; details: 100 µM (L-glutamine 2 mM) pre-incubated 10 min or 3 h, L-leucine 1–400 µM, 5 min
Description: The ability of compounds 1–15 to affect the uptake of a known LAT1 substrate L-leucine was evaluated by pre-incubating the BV2 cells at 37 °C for 10 min or 3 h with uptake buffer pH 7.4 (250 μL) containing 100 µM of compounds 1–15 or thyroxin (T4), or known nuclear receptor inducible compounds, phenobarbital (constitutive androstane receptor, CAR), and dexamethasone (pregnane X receptor, PXR) as controls. […] After incubation, the reaction was stopped by adding 250 µL of ice-cold HBSS, and the cells were washed two times with ice-cold HBSS. The cells were then lysed with 500 μL of 0.1 M NaOH (60 min) and the lysate was mixed with 3.5 mL of Emulsifier safe cocktail (Ultima Gold, PerkinElmer, Waltham, MA, USA). The radioactivity in the cells was measured by liquid scintillation counting (MicroBeta^2 counter, PerkinElmer Waltham, MA, USA). The results were multiplied by the amount of un-labeled proportion of L-leucine in each sample.

LAT1 [5] = target: T1, LAT1; experiment: Concentration-dependent cellular uptake into BV2 cells, Eadie–Hofstee analysis, Transport Type 1 (LAT1); type: cell-based; details: 1–200 µM, 30 min, BV2; Eadie–Hofstee; mean ± SD, n = 3
Description: as §1, §2

LAT1 [6] = target: T1, LAT1; experiment: Cellular uptake of compounds in the presence of LAT1-inhibitor (KMH-233); type: cell-based; details: 100 µM compound, 100 µM KMH-233, 30 min, BV2
Description: The competitive uptake in the presence of LAT1-inhibitor (KMH-233) was carried out as described above with HBSS buffer solution containing 100 µM of the studied compounds. The cells were pre-incubated with 100 µM LAT1-inhibitor for 10 min and the incubation mixture was removed before adding the studied compound and LAT1-inhibitor on the cells. The competitive uptake (30 min) with the inhibitor was then carried out as the normal uptake described above. The amounts of studied compounds were analyzed by the LC-MS method and calculated from the spiked standard curve and normalized with the protein concentrations.

LAT1 [7] = target: T1, LAT1; experiment: Cis-inhibition of radiolabelled LAT1-probe substrate uptake into BV2 cells; type: cell-based; details: for IC50: 5 min, mean ± SD
Description: as §3
The ability of compounds 1–15 to inhibit the uptake of a known LAT1 substrate [^14C]-L-leucine was then evaluated by incubating the cells at 37 °C for 5 min in uptake buffer pH 7.4 (250 μL) containing 0.2 µCi/mL of [^14C]-L-leucine, or 2 µCi/mL of [^3H]-L-methionine, [^3H]-L-tryptophan or [^3H]-L-kynurenine (PerkinElmer, Waltham, MA, USA) and 0.1–1000 μM of the studied compound (or HBSS as blank). After incubation, the uptake was stopped by adding 250 µL of ice-cold HBSS, and the cells were washed two times with ice-cold HBSS. The cells were then lysed with 500 μL of NaOH (0.1 M) for 60 min and the lysate was mixed with 3.5 mL of Emulsifier safe cocktail (Ultima Gold, PerkinElmer, Waltham, MA, USA). The radioactivity in the cells was measured by liquid scintillation counting (MicroBeta^2 counter, PerkinElmer Waltham, MA, USA). Half of the maximum inhibitory concentration (IC50) values were calculated by nonlinear regression analysis (fitting the curve to log (concentration) vs. remaining normalized […]).

LAT1 [8] = experiment: Quantitative expression of LAT1 on the BV2 plasma membrane (LC-MS proteomics); type: cell-based, mouse; details: BV2 cells incubated 24 h; normalized to Na+/K+ATPase; compared to untreated control
Description: The protein expression levels of LAT1, in the plasma membrane fractions of BV2 cells were quantified using multiplexed MRM analysis according to the protocol described by Uchida et al.. First, the crude membrane fractions were isolated from three distinct sets of cell culture plates using Membrane Protein Extraction Kit (BioVision Incorporated, Milpitas, CA, USA) according to the manufacturer’s instructions. The protein content for each fraction was measured by Bio-Rad Protein Assay, based on the Bradford dye-binding method (EnVision, Perkin Elmer, Inc., Waltham, MA, USA). A total amount of 50 µg protein from each fraction was solubilized/denatured in 7 M guanidine hydrochloride, 0.5 M Tris-HCl and 10 mM EDTA-Na. The proteins were then reduced by dithiothreitol (1:50, w/w) and S-carboxymethylated by iodoacetamide (1:20, w/w). The alkylated proteins were precipitated by methanol/chloroform/water (4:1:3) and centrifuged at 18,000× g for 5 min at 4 °C. The pellet was resuspended in 6 M urea and mixed for 10 min at room temperature before the dilution with 0.1 M Tris-HCl (pH 8.5) to a final concentration of 1.2 M urea, and dissolved completely by intermittent sonication (Branson 3510, Danbury, CT, USA). The dissolved proteins were first digested with LysC (1/100, w/w) and 0.05% ProteaseMax (Promega Biotech AB, Nacka, Sweden) for 3 h at room temperature. Then, the samples were spiked with 10 µL (30 fmol) of the labelled peptides for absolute quantification (JPT Peptide Technologies GmbH, Berlin, Germany) (Table S2). The samples were incubated with (1/100, w/w) TPCK-Trypsin (Promega Biotech AB, Nacka, Sweden) for 18 h at 37 °C. The tryptic digestion was then quenched by adding 40 µL of 5% formic acid. The samples were then centrifuged at 18,000× g for 5 min at 4 °C, and the supernatants were transferred to vials for analysis.
The digested peptides were analyzed using an ultra-performance liquid chromatography system coupled with a triple quadrupole mass spectrometer with a heated electrospray ionization source in the positive mode (UPLC 1290 and MSD 6495, Agilent Technologies, Santa Clara, CA, USA). A total amount of 20 µL of the digested peptides (10 µg) was separated using AdvanceBio Peptide Map 2.1 × 250 mm, 2.7 μm column (Agilent Technologies, Santa Clara, CA, USA) and LC eluents of 0.1% formic acid in water (A) and acetonitrile (B). The peptides were eluted following a constant flow rate of 0.3 mL/min and a gradient of 2–7% B for 2 min, followed by 7–30% B for 48 min, 30–45% B for 3 min, and 45–80% B for 2.5 min before re-equilibrating the column again for 4.5 min. LAT1 was quantified based on the ratio between the light and heavy standard peptides, as described previously (Table S2). Data was acquired using Agilent MassHunter Workstation Acquisition (Agilent Technologies, Data Acquisition for Triple Quadrupole, version B.03.01) and processed by using Skyline software (version 20.1). The results were normalized to a housekeeping protein Na+/K+ATPase and expressed as fmol/µg of the total amount of protein in the samples.

[9] = 100 µM compound, 1–60 min, mean ± SD, n = 3
[10] = probe [3H]-L-Kynu, n = 3–4, read-out: IC50 of [3H]-L-Kynu uptake
[11] = probe [3H]-L-Met, n = 3–4, read-out: IC50 of [3H]-L-Met uptake
[12] = probe [3H]-L-Trp, n = 3–4, read-out: IC50 of [3H]-L-Trp uptake

Row | Structure (SMILES) | Vmax of [14C]-L-Leu uptake (LAT1 [1]) | Inhibition Type (LAT1 [1]) | half-life at 100 μM [2] | Max. cellular uptake [3, 9] | Effect on cellular uptake of L-Leu after pre-incubation (LAT1 [4]) | Km (LAT1 [5]) | Transport Type 1 (LAT1) Vmax (LAT1 [5]) | Cellular uptake in the presence of LAT1-inhibitor (LAT1 [6]) | IC50 (LAT1 [7]; [10]) | IC50 (LAT1 [7]; [11]) | IC50 (LAT1 [7]; [12]) | LAT1 expression on the plasma membrane (LAT1 [8]) | other results
1 | CC(C(=O)Nc1ccc(CC(N)C(=O)O)cc1)c1cccc(C(=O)c2ccccc2)c1 (stereo not shown) [Compound 3] | 2.851 ± 0.035 nmol/min/mg | Non-competitive | 1.5 ± 0.67 min | 1.96 ± 0.14 nmol/mg of protein | decreased the amount of L-Leu inside the cells | 1.9 ± 0.3 µM | 3.7 ± 0.5 pmol/mg/min | inhibited significantly | 11.9 ± 1.3 µM | 17.1 ± 1.9 µM | 39.2 ± 1.5 µM | – | Km (Transport Type 2): 148 ± 41 µM; Transport Type 2 Vmax (Transport Type 2): 49 ± 9 pmol/mg/min; Inhibition of LAT1-probe substrate uptake / LAT1 affinity (LAT1 [7]; over all probe substrates): lower affinity and higher IC50 values; IC50 (LAT1 [7]; probe [14C]-L-Leu, n = 3–4, read-out: IC50 of [14C]-L-Leu uptake): 26 ± 1.1 µM
2 | NC(=O)CC[C@H](N)C(=O)O [L-glutamine, reference compound] | – | – | – | – | decreased the amount of L-Leu inside the cells | – | – | – | – | – | – | – | –
3 | CCC1(c2ccccc2)C(=O)NC(=O)NC1=O [phenobarbital, reference compound] | – | – | – | – | – | – | – | – | – | – | – | did not have any effect on LAT1 expression | –
4 | CC(C)Cc1ccc([C@H](C)C(=O)Nc2cccc(C[C@H](N)C(=O)O)c2)cc1 [Compound 10] | 2.151 ± 0.066 nmol/min/mg | Mixed type | < 1 min | 4.14 ± 0.31 nmol/mg of protein | – | 22 ± 6 µM | 205 ± 41 pmol/mg/min | only reductive trends were seen | 7.7 ± 1.1 µM | 9.6 ± 1.6 µM | 43.4 ± 1.5 µM | – | IC50 (LAT1 [1]; Table 2, compound concentration used in the inhibition type study, corresponding to IC50 of [14C]-L-Leu uptake): 13 µM; T½ of cellular uptake [3, 9]: 0.87 ± 0.55 min; LAT1-substrate or LAT1-binder ([3]; concluded from time-dependent uptake, 100 µM): LAT1-binders rather than substrates
5 | C[C@@H]1C[C@H]2[C@@H]3CCC4=CC(=O)C=C[C@]4(C)[C@@]3(F)[C@@H](O)C[C@]2(C)[C@@]1(O)C(=O)CO [dexamethasone, reference compound] | – | – | – | – | – | – | – | – | – | – | – | did not have any effect on LAT1 expression | –
